From US20190256502A1, “ORGANIC COMPOUNDS” (HOX THERAPEUTICS LIMITED, priority 2016, published 2019)
pIC50: −log10 of the molar value. Where two headings read alike, the source gives them in different places.

Tests used:
[1] = tested on: MDA-MB-231 cells; experiment: MTT assay for cell killing, breast cancer cell line MDA-MB-231; assay type: cell-based; settings: for pIC50: Homo sapiens, MDA-MB-231, MTT, 72h
Protocol: The cytotoxicity of the peptides on the prostate cancer derived cell lines DU145, LnCaP, and PC3, and the breast cancer derived cell line MDA-MB-231 was tested as previously described (Morgan et al. 2014 ibid), using the MTT (3-[4,5-dimethylthiazol-2-yl]-2,5-diphenyltetrazolium bromide) assay for metabolic activity. 7000-16000 cells, depending on the cell line, were seeded onto 96-well cell plate and treated with 5, 10, 20, 40 and 80 μM of each compound for 72h, DMSO alone (negative control) for 72 hr, or HTL001 ([…]; International patent application published as WO2017068353; positive control) for 2 h. After treatment, MTT at a final concentration of 0.5 mg/ml was added. Upon 4h incubation the formed formazan crystals were dissolved in DMSO and the optical density (OD) measured at 540 nm with a spectrofluorimeter. Percentage of cell survival was calculated as a ratio of the mean OD value of treated vs. untreated cells. Experiments were repeated 3 times and statistical analysis performed using Student's t-test. All cell lines were cultured in RPMI media with added 10% FBS, 1% sodium pyruvate and 1% L-Glutamine. They were all cultured in an incubator at 37° C., 5% CO2. The assay was repeated 3 times and the results are given as the mean IC50 for cell killing±standard deviation.
The molecules were tested for their ability to induce cell death using the breast cancer cell line MDA-MB-231, with the HOX/PBX interfering peptide HTL001 (WYKWMKKAARRRRRRRRR; International patent application published as WO2017068353) as a positive control and DMSO as a negative control. Percentage of cell survival was evaluated with the MTT assay after treatment with different concentrations ([…], 10, 20, 40 and 80 μM) of each compound for 72h. The IC50 was evaluated as the concentration of the compound that reduces % of cell survival by half.
MDA-MB-231 cells were treated with different concentrations of Example 2 dissolved in either DMSO or PEG/Tris HCl and MTT assay performed. Data are means±SEM of four independent experiments.

[2] = tested on: cFOS; experiment: cFOS expression in MDA-MB-231 cells (qRT-PCR); assay type: cell-based; settings: for fold induction at 33 µM: Homo sapiens, qRT-PCR; for fold induction at 33 µM / cFos expression compared to untreated MDA-MB-231 cells: MDA-MB-231 cells, 2h, 33 μM
Protocol: MDA-MB-231 cells were seeded in 25 cm^2 plates and treated for 2h with 33 μM of each compound at 80% confluence. RNA was isolated using RNeasy Mini Kit-QIAGEN according to manufacturer's instructions and quantified with NanoDrop ND-1000. cDNA was generated from 1 μg of total RNA using High Capacity cDNA Reverse Transcription Kit in a 25 μl final reaction volume according to the manufacturer protocol. The expression of cFOS was quantified by qRT-PCR. Real-time PCR reactions were performed using 1:10 dilution (5 μl/well) of each cDNA added to TaqMan Universal PCR Master Mix and TaqMan Gene Expression Assay Hs00170630_m1 FOS. Amplification of glyceraldehyde 3-phosphate dehydrogenase (GAPDH) probe was performed as endogenous control. The comparative Ct method (ΔΔCt algorithm) was used for analysis. Independent experiments were performed in triplicates and repeated three times. Statistical analysis was performed with Student's t-test.
MDA MB 231 cells were treated for 4h with 4×IC50 Example 2 in PEG/Tris HCl. RNA was isolated and RT-PCR performed to detect expression of cFOS. Data are means±SEM of four independent experiments. Significance to PEG/Tris HCl: **p<0.01 (Ttest).

[3] = tested on: MDA-MB-231 tumour; experiment: In vivo study, MDA-MB-231 tumour in Balb-c nude mice; settings: 20 mg/Kg, IP, day 0, 3, 6, 9, 10 & 13
Protocol: MDA-MB-231 cells were injected subcutaneously into female or male Balb-c nude mice aged 6 to 12 weeks (Harlan, UK). When the tumour size reached 100 mm^3 mice were injected intratumouraly with Example 2 at the intervals shown on the graph. Mice were sacrificed when the tumour size reached 1000 mm^3 or at the end of the experiment (14 days).
Treatment of MDA-MB-231 tumour with Example 2 (ICT9119): Group 1—Untreated controls Group 2—10% DMSO/Oil solvent control, IP, day 0, 3, 6, 9, 10 & 13 Group 3—Example 2, 20 mg/Kg, IP, day 0, 3, 6, 9, 10 & 13

[4] = Solubility studies; assay type: physicochemical
Source text: Example 2 was solubilised in PEG400 and propylene glycol (PG).

[5] = tested on: cFOS; experiment: cFOS expression in PC3 prostate cancer cells (RT-PCR); assay type: cell-based; settings: 4h, 120 μM in PEG/Tris HCl
Protocol: (§1) PC3 cells were treated for 4h with 120 μM Example 2 in PEG/Tris HCl. RNA was isolated and RT-PCR performed to detect expression of cFOS and DUSP1. Data are means±SEM of three independent experiments. Significance to PEG/Tris HCl: **p<0.01, ***p<0.001 (Ttest).

[6] = tested on: DUSP1; experiment: DUSP1 expression in PC3 prostate cancer cells (RT-PCR); assay type: cell-based; settings: 4h, 120 μM in PEG/Tris HCl
Protocol: as §1

[7] = tested on: cFOS; experiment: cFOS expression in DU145 prostate cancer cells (RT-PCR); assay type: cell-based; settings: 4h, 120 μM in PEG/Tris HCl
Protocol: (§2) DU145 cells were treated for 4h with 120 μM Example 2 in PEG/Tris HCl. RNA was isolated and RT-PCR performed to detect expression of cFOS and DUSP1. Data are means±SEM of three independent experiments. *p<0.05 (Ttest).

[8] = tested on: DUSP1; experiment: DUSP1 expression in DU145 prostate cancer cells (RT-PCR); assay type: cell-based; settings: 4h, 120 μM in PEG/Tris HCl
Protocol: as §2

[9] = molecular target: T1, HOXB4/PBX2 dimers (Homo sapiens, UniProt P40425); experiment: Cell based ELISA assay for HOX/PBX binding (HOXB4/PBX2 dimer assay); settings: MDA-MB-231 cells treated with 10 μM for 4 hours; compared to negative control (DMSO); read-out: % inhibition of HOXB4/PBX2 dimer formation
T1 construct: endogenous in cells; host or cells: MDA-MB-231
T1 sequence (P40425 1-430): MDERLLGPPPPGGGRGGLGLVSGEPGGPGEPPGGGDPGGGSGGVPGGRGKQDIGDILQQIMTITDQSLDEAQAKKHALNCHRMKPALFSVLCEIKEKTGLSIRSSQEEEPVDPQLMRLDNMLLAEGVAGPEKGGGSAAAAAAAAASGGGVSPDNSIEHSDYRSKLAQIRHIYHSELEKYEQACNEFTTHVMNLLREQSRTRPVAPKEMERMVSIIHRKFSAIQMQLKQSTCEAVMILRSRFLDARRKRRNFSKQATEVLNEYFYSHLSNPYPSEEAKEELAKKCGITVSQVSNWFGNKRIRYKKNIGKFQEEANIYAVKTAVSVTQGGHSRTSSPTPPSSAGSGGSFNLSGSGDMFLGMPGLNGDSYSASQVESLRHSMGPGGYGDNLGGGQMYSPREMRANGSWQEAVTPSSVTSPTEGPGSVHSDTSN
Protocol: In order to directly assess the ability of each compound to disrupt HOX/PBX binding a cell-based assay system was developed that could allow the formation of HOX/PBX/DNA dimers. Cultured MDA-MB-231 cells were treated with 10 μM of each compound for 4 hours and then used to generate a cell lysate using a standard preparation method as described below. HOXB4/PBX2 dimers were then measured using an ELISA-based system as detailed in the table below. The values from this assay are expressed as % inhibition of dimer formation compared to a negative control (DMSO).
1. Collect approximately 5.0×10^7 cells by low-speed centrifugation at RT for 5 min. Carefully remove culture medium. 2. Wash the cellular debris (pellet) with PBS at RT, and collect by low-speed centrifugation. Carefully remove supernatant (total protein). 3. Add 1.0 ml of pre-cold RIPA buffer (or other appropriate buffer) with freshly added (Protease Inhibitors) and/or (Phosphatase Inhibitors). Gently resuspend cells in RIPA buffer with a pipet and incubate on ice for 30 min. 4. Further disrupt and homogenize cells by passing through a 21-gauge needle, dounce homogenization or sonication, taking care not to raise the temperature of the lysate. (Optional: Add 10 μl of 10 mg/ml PMSF stock) Incubate 30 min on ice. 5. Transfer to microcentrifuge tube(s) and centrifuge at 10,000×g for 10 min at 4° C. […]

[10] = no induced cell death observed at 80 μM, read-out: IC50 values for the urea analogue reference examples
[11] = average of experiments, read-out: IC50 Average
[12] = single experiment 1, read-out: IC50 Exp1
[13] = single experiment 2, read-out: IC50 Exp2
[14] = MDA-MB-231 tumour in Balb-c nude mice
[15] = single experiment 3, read-out: IC50 Exp3
[16] = single experiment 4, read-out: IC50 Exp4

Compound	pIC50 [1, 10]	pIC50 [1, 11]	pIC50 [1, 12]	pIC50 [1, 13]	pIC50 [1, 15]	other results
C#CCNC(=O)NCC(c1cccs1)c1c[nH]c2ccccc12 (stereo not shown) [A, reference compound]	< 4.10	–	–	–	–	–
O=C(NCC1CC1)NCC(c1cccs1)c1c[nH]c2ccccc12 (stereo not shown) [B, reference compound]	< 4.10	–	–	–	–	–
CCCNC(=O)NCC(c1ccsc1)c1c[nH]c2ccccc12 (stereo not shown) [C, reference compound]	< 4.10	–	–	–	–	–
C=C(C)CNC(=O)NCC(c1ccsc1)c1c[nH]c2ccccc12 (stereo not shown) [D, reference compound]	< 4.10	–	–	–	–	–
CCCCCCCNC(=S)NCC(c1cccs1)c1c[nH]c2ccccc12 (stereo not shown) [Example 1, 1-heptyl-3-[2-(1H-indol-3-yl)-2-(2-thienyl)ethyl]thiourea]	–	4.48	4.66	4.35	–	fold induction at 33 µM [2]: 32.5; cFos expression compared to untreated MDA-MB-231 cells [2]: significant increase
CCCCCCNC(=S)NCC(c1cccs1)c1c[nH]c2ccccc12 (stereo not shown) [Example 2, 1-hexyl-3-[2-(1H-indol-3-yl)-2-(2-thienyl)ethyl]thiourea]	–	4.42	4.43	4.41	–	MDA-MB-231 cell survival, in PEG/Tris HCl in comparison with in DMSO ([1]; MTT assay, four independent experiments, p<0.05): significantly decreased; cFOS expression in MDA-MB-231 cells ([2]; 4h, 4×IC50, in PEG/Tris HCl, p<0.01 to PEG/Tris HCl): significantly increased; Maximum % weight loss ([3]; Balb-c nude mice): 0%; Growth delay [3, 14]: 4.2 days; Median time RTV 2 [3, 14]: 8.9 days; behaviour on dilution with water ([4]; diluted with water with polysorbate 80 (Tween 80) at a final concentration of 5%): remained in solution; concentration achieved in propylene glycol (PG) ([4]; solubilised in PG): up to 5 mg/mL; cFOS expression in PC3 cells [5]: significantly increased; DUSP1 expression in PC3 cells [6]: significantly increased; cFOS expression in DU145 cells [7]: significantly increased; DUSP1 expression in DU145 cells [8]: significantly increased
CCCCCNC(=S)NCC(c1cccs1)c1c[nH]c2ccccc12 (stereo not shown) [Example 3, 1-pentyl-3-[2-(1H-indol-3-yl)-2-(2-thienyl)ethyl]thiourea]	–	4.45	4.67	4.31	–	–
S=C(NCC1CCCCC1)NCC(c1cccs1)c1c[nH]c2ccccc12 (stereo not shown) [Example 4, 1-cyclohexylmethyl-3-[2-(1H-indol-3-yl)-2-(2-thienyl)ethyl]thiourea]	–	4.28	4.18	4.40	–	–
C=C(C)CNC(=S)NCC(c1cccs1)c1c[nH]c2ccccc12 (stereo not shown) [Example 5]	–	4.34	4.32	4.35	4.36	inhibition at 10 µM [9]: 39.2%; fold induction at 33 µM [2]: 37.4; cFos expression compared to untreated MDA-MB-231 cells [2]: significant increase
CNC(=S)NCC(c1cccs1)c1c[nH]c2ccccc12 (stereo not shown) [Example 6]	–	4.21	4.17	4.32	4.16	–
CCNC(=S)NCC(c1cccs1)c1c[nH]c2ccccc12 (stereo not shown) [Example 7]	–	4.22	4.29	4.18	4.19	–
CCCNC(=S)NCC(c1cccs1)c1c[nH]c2ccccc12 (stereo not shown) [Example 8]	–	4.29	4.37	4.31	4.25	pIC50 [1, 16]: 4.22
CCCCNC(=S)NCC(c1cccs1)c1c[nH]c2ccccc12 (stereo not shown) [Example 9]	–	4.38	4.39	4.43	4.53	pIC50 [1, 16]: 4.39; pIC50 ([1]; single experiment 5, read-out: IC50 Exp5): 4.24
